The values below are quoted from earlier work in US8278351B2, “Natural marine source phospholipids comprising polyunsaturated fatty acids and their applications” (priority 2001, dated 2012).

Bounds are passed on as bounds.

One data set relates to depression. Particulars: 12 grams daily; placebo 0.6+/−10.
For data set [1] the following is noted: high-dose inositol.
The test system of the next data set is panic disorder. Particulars: four weeks.
The test system of data set [2] is Obsessive Compulsive Disorder. Particulars: week six, compared to placebo period.
For data set [3], the system named is Alzheimer's Disease.
Another data set deals with cancer cells. Particulars: in vitro.
For data set [4], the system named is breast, ovarian, and lung cancer cells, mesothelioma cells.
The test system of data set [5] is Alzheimer's Disease. Particulars: 300 mg. per day for six weeks, 35 patients.
Another data set deals with cognitive decline. Particulars: 300 mg. per day for six months, versus placebo.
The test system of another data set is memory impairment. Particulars: 300 mg. daily, three months.
Data set [6] concerns mitochondrial membrane potentials. Particulars: experimental group, peripheral blood.
The test system of the next data set is mitochondrial DNA. Particulars: treated group versus control; brain and cochlea.

For `O[C@H]1[C@H](O)[C@@H](O)[C@H](O)[C@@H](O)[C@H]1O` [inositol], the “improvement in depression as ranked by the Hamilton Depression Rating Scale” value in the data set on depression was 33.4+/−6. Further, in data set [1], the “increase of CSF levels of inositol” value is no more than 70%. Moreover, the “frequency and severity of panic attacks and severity of agoraphobia” value in the data set on panic disorder (versus placebo) is listed as “declined significantly more after inositol than after placebo”. The “panic attacks after treatment” value in the data set with panic disorder (decrease from 10 attacks per week, placebo 10 to 6) is 3 per week. The “improvement in OCD” value in data set [2] is “significant improvement”. Besides, the “CAMCOG subscales language and orientation” value in the data set on Alzheimer's Disease [3] (only two of the eight subscales) was “significant improvement”. Besides, the “total CAMCOG score after inositol” value with Alzheimer's Disease [3] (six grams inositol daily, four weeks) was 40.09+/−24.54. For the same compound, the “total CAMCOG score, baseline” value in the data set on Alzheimer's Disease [3] (six grams inositol daily, baseline) is recorded as 31.36+/−20.90.

Turning to Phosphatidylcholine, the “cytotoxicity to cancer cells” value in the data set with cancer cells is listed as “selectively cytotoxic”. Moreover, the “dosage tolerated by normal cells relative to leukemic cells” value in the data set on HL60 leukemic cells (24 hours incubation) was 4 times. Moreover, the “inhibition of HL60 leukemic cells” value in the data set on HL60 leukemic cells (versus normal human marrow cells) was “inhibit HL60 leukemic cells at a dosage that has no effect on normal human marrow cells”. The “difference in sensitivity between normal and tumor cells” value in data set [4] was no more than 5 fold.

Consider Phosphatidylserine [PS], for which the “improvement in Alzheimer's patients” value in the data set on Alzheimer's Disease [5] is on record as “significant improvement”. In the data set on cognitive decline, the memory and learning result is given as “significantly improved”. Moreover, the mental gain with memory impairment is reported as 12 years.

In the case of Polyunsaturated phosphatidylcholine, in the data set with age-related hearing loss (300 mg/kg/day oral diet, four and six months of treatment), the “preservation of hearing at all frequencies (3, 6, 9, 12 and 18 kHz)” value is “statistically significant preservation of hearing”. Besides, in the data set with age-related hearing loss (300 mg/kg/day, p<0.005 versus control), the “overall effect on decline in hearing” value is “statistically significant protective effect”. Besides, the “mean fluorescence intensity (MFI), beginning of the study” value in [6] (beginning of the study) is 3165. Besides, the “mean fluorescence intensity (MFI), end of the study” value in data set [6] (end of the study (six months)) was 2990. Further, the “mitochondrial DNA damage” value in the data set with mitochondrial DNA is recorded as “less mitochondrial DNA damage”.
